Results as given in PMC6333787, “Peptidyl-prolyl isomerase-B is involved in Mycobacterium tuberculosis biofilm formation and a generic target for drug repurposing-based intervention” (NPJ Biofilms and Microbiomes, 2019).
Entries after “also recorded” stand apart in the source; their conditions may differ. Like-named read-outs stand apart in the source and are kept apart here.

Tests used:
P.aeruginosa = settings: cited from earlier work
Excerpt: The presence of extracellular M.tb within biofilm like structure inside lung lesions of M.tb infected guinea pigs undergoing antibiotic treatment points to the possibility of biofilm formation within the host tissues.[7] Peptidyl-prolyl isomerases (PPIase), popularly known as cyclophilins, are ubiquitously expressed protein foldases which aid in protein folding or refolding by ...

[1] = cited from earlier work
Excerpt: Our next step was to identify suitable drug(s) that could act as an inhibitor of PpiB protein. Developing new drugs is a long process taking about 10–15 years. Drug repurposing is gaining popularity as it allows bypassing of the cumbersome clinical trial of drugs for which the parameters of toxicity and effectiveness have already been tested and approved.

M.tb PpiB = experiment: Surface plasmon resonance (SPR); type: binding, Mycobacterium tuberculosis; settings: rPpiB immobilised on CM5 sensor chip, PBS, association 300 s, dissociation 150 s
[2] = tested on: M.smegmatis expressing M.tb PpiB (Ms_PpiB) and vector control (Ms_VC); type: cell-based, Mycobacterium smegmatis
[3] = tested on: M. smegmatis (Ms_VC and Ms_PpiB); type: cell-based, Mycobacterium smegmatis
[4] = tested on: M. smegmatis (Ms_VC and Ms_PpiB); type: cell-based, Mycobacterium smegmatis; settings: for bacteriostatic effect at 100 µg/ml: up to 120 h; for Concentration up to which effect is bacteriostatic: 120 h as compared to 72 h; for bacteriostatic or bactericidal effect: M. smegmatis, summary statement
[5] = tested on: M. smegmatis (Ms_VC and Ms_PpiB); type: cell-based, Mycobacterium smegmatis; remark: listed apart in the source
[6] = tested on: M. smegmatis (Ms_VC and Ms_PpiB); type: cell-based, Mycobacterium smegmatis; remark: listed apart in the source
E. coli = settings: cited from earlier work
Excerpt: Acarbose is widely used for the management of type 2 Diabetes mellitus as well. […] There are several bacteria that are invol ...

M.tuberculosis H37Rv = type: cell-based, Mycobacterium tuberculosis
Candida albicans = settings: cited from earlier work
C.parapsilosis = settings: cited from earlier work
Prokaryotic cyclophilins = settings: cited from earlier work
[7] = tested on: M. smegmatis (Ms_VC and Ms_PpiB); settings: general statement, no reference given; cited from earlier work
[8] = tested on: M. smegmatis (Ms_VC and Ms_PpiB); settings: general statement, no reference given; cited from earlier work; remark: listed apart in the source

Compound: O=C(Nc1ccc([N+](=O)[O-])cc1Cl)c1cc(Cl)ccc1O [niclosamide]
- effect against P.aeruginosa biofilm (P.aeruginosa): inhibitory effects against biofilms formed by P.aeruginosa

Compound: CN(C)C(=N)N=C(N)N [metformin]
- repurposing outcome in patients [1]: lowering morbidity of TB patients

Compound: Cc1ccc(-c2cc(C(F)(F)F)nn2-c2ccc(S(N)(=O)=O)cc2)cc1 [Celebrex]
- repurposing outcome in patients [1]: decreasing polyp formation in colon cancer patients

Compound: C[C@H]1O[C@H](O[C@H]2[C@H](O)[C@@H](O)[C@@H](O[C@H]3[C@H](O)[C@@H](O)C(O)O[C@@H]3CO)O[C@@H]2CO)[C@H](O)[C@@H](O)[C@@H]1N[C@H]1C=C(CO)[C@@H](O)[C@H](O)[C@H]1O (stereo partly drawn) [Acarbose, acarbose]
- SPR interaction (M.tb PpiB): interact with M.tb PpiB in a dose dependent manner and bind with high affinity
- biofilm formation, induced PpiB tet+ [2]: significant decrease in biofilm formation
- biofilm formation, acarbose 500 µg/ml and above ([2]; 500 µg/ml and above): inhibited biofilm formation
- biofilm formation, uninduced PpiB tet- ([2]; Ms_PpiB uninduced by anhydrotetracycline (PpiB tet-)): did not exhibit any significant change
- biofilm formation, Ms_VC cells ([2]; Ms_VC, presence or absence of agent): only basal levels of biofilm formation
- biofilm formation, 500 and 1000 µg/ml ([2]; acarbose 500 and 1000 µg/ml, Ms_PpiB, compared to no acarbose, 7 days): significant inhibition in the biofilm formation
- biofilm formation, lower concentrations ([2]; acarbose at lower concentrations, VC tet- and PpiB tet-, "Hormetic effect"): transient increase in biofilm formation
- biofilm formation, acarbose upto 100 µg/ml ([2]; lower concentration (upto 100 µg/ml)): increase in biofilm formation
- viability, acarbose 10 mg/ml ([3]; 10 mg/ml, data not shown): no significant effect
- Threshold concentration at which viability was not significantly affected ([3]; M. smegmatis expressing PpiB, alamar blue): 1000 µg/mL
- viability, acarbose up to 1000 µg/ml ([3]; up to 1000 µg/ml, Ms_VC or Ms_PpiB): no effect
- bacteriostatic effect at 100 µg/ml [4]: bacteriostatic effect
- Concentration up to which effect is bacteriostatic [4]: ≤ 1000 µg/mL
- bacteriostatic or bactericidal effect [4]: bacteriostatic effect; also recorded: bacteriostatic activity
- reduction in dosage of anti-TB drugs ([5]; co-treatment, isoniazid/ethambutol): at least two-fold
- efficacy in decreasing the dosage of ethambutol ([6]; acarbose, data not shown): insignificant
- maltose importer block and growth of E. coli (E. coli): block maltose importer and consequently suppress growth of E. coli

Compound: cyclosporine-A
- SPR interaction (M.tb PpiB): interact with M.tb PpiB in a dose dependent manner and bind with high affinity
- biofilm formation, 100 µg/ml [2]: significant decrease (p < 0.05) in biofilm formation
- biofilm formation, 1000 µg/ml [2]: complete inhibition of biofilm formation (p < 0.005)
- biofilm formation, Ms_VC cells [2]: only basal levels of biofilm formation
- biofilm formation, induced PpiB tet+ [2]: significant decrease in biofilm formation
- biofilm formation, uninduced PpiB tet- [2]: did not exhibit any significant change
- Threshold concentration at which viability was not significantly affected [3]: 100 µg/mL
- viability, cyclosporine-A below 250 µg/ml [3]: insignificant effect
- bacteriostatic effect at 100 µg/ml [4]: bacteriostatic effect
- Concentration up to which effect is bacteriostatic [4]: ≤ 500 µg/mL
- bacteriostatic or bactericidal effect ([4]; listed as cyclosporine A): bacteriostatic activity
- bacteriostatic or bactericidal effect ([4]; listed as cyclosporine-A): bacteriostatic effect
- reduction in dosage of anti-TB drugs [5]: at least two-fold
- decrease in ethambutol dosage with cyclosporine-A [6]: decreased four-fold
- biofilm formation in H37Rv, cyclosporine-A (M.tuberculosis H37Rv): significant reduction (Fig. 5a) in biofilm formation
- effect on H37Rv biofilm formation (M.tuberculosis H37Rv): disrupted M.tb H37Rv biofilm formation; also recorded: Suppressive effect
- combination with fluconazole against C.albicans biofilms (Candida albicans): effective against biofilms formed by C.albicans
- sensitisation of C. albicans biofilm to antifungal drugs (Candida albicans): sensitises drug-tolerant biofilm of Candida albicans to various antifungal drugs
- sensitivity of C.albicans to fluconazole (Candida albicans): imparts sensitivity to C.albicans towards fluconazole
- synergy with antifungals against C.parapsilosis (C.parapsilosis): acts synergistically to improve the efficacy of antifungals against C.parapsilosis
- affinity for prokaryotic cyclophilins (Prokaryotic cyclophilins): weak affinity

Compound: CCN(CC)CCCC(C)Nc1ccnc2cc(Cl)ccc12 (stereo not drawn) [chloroquine]
- repurposing outcome in patients [1]: improving outcome of cancer drug Erlotinib

Compound: CC[C@@H](CO)NCCN[C@@H](CC)CO [Ethambutol, ethambutol]
- dosage of ethambutol with cyclosporine-A [6]: 4 µg/mL
- dosage of ethambutol, control without GaNP ([6]; Fig. 4e, control): 16 µg/mL
- dosage of ethambutol, absence of cyclosporine-A ([6]; Fig. 4d, PpiB tet+, 68 h): 16 µg/mL
- dosage of ethambutol with GaNP ([6]; GaNP 50 µg/ml, Fig. 4e): 1 µg/mL
- dosage of ethambutol, normally effective [7]: 1 µg/mL

Compound: NNC(=O)c1ccncc1 [Isoniazid, isoniazid]
- dosage of isoniazid with cyclosporine-A [5]: 32 µg/mL
- fold decrease in dosage of isoniazid [5]: 2–4 fold
- dosage of isoniazid, absence of cyclosporine-A ([5]; Fig. 4a, PpiB tet+ biofilm, 7 days then 68 h isoniazid): 64 µg/mL
- dosage of isoniazid, absence of acarbose ([5]; Fig. 4b, PpiB (tet+), 68 h): 64 µg/mL
- dosage of isoniazid with GaNP ([5]; GaNP 50 µg/ml, Fig. 4c, 68 h): 16 µg/mL
- dosage of isoniazid with acarbose ([5]; acarbose 500 µg/ml, Fig. 4b, PpiB (tet+), 68 h): 32 µg/mL
- dosage of isoniazid, normally effective [8]: 16 µg/mL
